Measurements reported in patent US20090143279A1 (priority 2007, published 2009).
Read-outs that look alike come from different tables or passages of the source.

How the values were obtained:
[1] = test system: mitochondrial membrane potential; assay type: cell-based, mouse; details: for ΔΨm (composite Z-score): normalized score vs mock-treated (DMSO) wells
reactive oxygen species = assay type: cell-based, mouse; details: for ROS (composite Z-score): normalized score vs mock-treated (DMSO) wells
OXPHOS gene expression = assay type: cell-based, mouse; details: for GE-HTS (composite Z-score): normalized score vs mock-treated (DMSO) wells
nuOXPHOS transcripts = assay type: cell-based, mouse; details: for nucOX (composite Z-score): normalized score vs mock-treated (DMSO) wells
mtOXPHOS transcripts = assay type: cell-based, mouse; details: for mitoOX (composite Z-score): normalized score vs mock-treated (DMSO) wells
cytochrome c = assay type: cell-based, mouse; details: for cyt c (composite Z-score): normalized score vs mock-treated (DMSO) wells
C2C12 myotubes = details: for Viability (composite Z-score): normalized score vs mock-treated (DMSO) wells
[2] = test system: cellular dehydrogenase activity; details: for MTT (composite Z-score): normalized score vs mock-treated (DMSO) wells
[3] = Table 7, C2C12 myotubes, 48 h, composite Z-score
[4] = composite Z-score vs DMSO, Conc 20 μM
[5] = Table 4, C2C12 myotubes, 48 h, composite Z-score
[6] = composite Z-score vs DMSO wells, Conc 20 μM
[7] = composite Z-score vs mock-treated (DMSO) wells, Conc 20 μM
[8] = composite Z-score vs mock-treated (DMSO) wells, concentration of each compound in μM

CC(=O)O[C@@H]1c2c(ccc3ccc(=O)oc23)OC(C)(C)[C@@H]1OC(=O)CC(C)C [dihydrosamidin, reference compound]
ΔΨm (composite Z-score) ([1]; Conc 20 μM): 0.199
ROS (composite Z-score) (reactive oxygen species; Conc 20 μM): 4.794
GE-HTS (composite Z-score) (OXPHOS gene expression; Conc 20 μM): 1.854
nucOX (composite Z-score) (nuOXPHOS transcripts; Conc 20 μM): 1.843
nucOXPHOS Z (nuOXPHOS transcripts; [3]): 1.84
mitoOX (composite Z-score) (mtOXPHOS transcripts; Conc 20 μM): 1.477
mito-OXPHOS Z (mtOXPHOS transcripts; [3]): 1.48
cyt c (composite Z-score) (cytochrome c; Conc 20 μM): 0.147
Viability (composite Z-score) (C2C12 myotubes; Conc 20 μM): 0.476
MTT (composite Z-score) ([2]; Conc 20 μM): −0.826

C[C@]12CCC3c4ccc(OC(=O)c5ccccc5)cc4CCC3C1CCC2=O (stereo partly shown) [estrone benzoate]
ΔΨm [1, 4]: −0.277
ROS (reactive oxygen species; [4]): 0.210
GE-HTS (OXPHOS gene expression; [4]): 0.061
nucOX (nuOXPHOS transcripts; [4]): 0.190
mitoOX (mtOXPHOS transcripts; [4]): −0.179
cyt c (cytochrome c; [4]): 0.406
Viability (C2C12 myotubes; [4]): 0.154
MTT [2, 4]: −0.807

Cc1cc(O)c2c(c1O)C(=O)c1c(O)cc(C)c(O)c1C2=O [1,4,5,8-tetrahydroxy-2,6-dimethylanthroquinone, reference compound]
ΔΨm ([1]; Table 4, C2C12 myotubes, 48 h, JC-1, composite Z-score): −0.662
ΔΨm [1, 4]: −0.662
ROS (reactive oxygen species; [5]): 0.772
ROS (reactive oxygen species; [4]): 0.772
GE-HTS (OXPHOS gene expression; [4]): −1.123
nucOX (nuOXPHOS transcripts; [4]): −1.178
mitoOX (mtOXPHOS transcripts; [4]): −0.739
cyt c (cytochrome c; [4]): 0.005
Viability (C2C12 myotubes; [5]): −0.853
Viability (C2C12 myotubes; [4]): −0.853
MTT [2, 5]: −0.344
MTT [2, 4]: −0.344

O=C(O)c1ccc(S(=O)(=O)N(Cl)Cl)cc1 [halazone]
ΔΨm [1, 6]: −0.334
ROS (reactive oxygen species; [6]): 0.779
GE-HTS (OXPHOS gene expression; [6]): 0.565
nucOX (nuOXPHOS transcripts; [6]): 0.593
mitoOX (mtOXPHOS transcripts; [6]): 0.385
cyt c (cytochrome c; [6]): −0.942
Viability (C2C12 myotubes; [6]): −0.242
MTT [2, 6]: −0.445

C[C@@H]1O[C@@H](O[C@H]2[C@H](O[C@H]3CC[C@@]4(C)[C@@H](CC[C@]5(C)[C@@H]4CC=C4[C@@H]6CC(C)(C)CC[C@]6(C(=O)O[C@@H]6O[C@H](CO[C@@H]7O[C@H](CO)[C@@H](O[C@@H]8O[C@@H](C)[C@H](O)[C@@H](O)[C@H]8O)[C@H](O)[C@H]7O)[C@@H](O)[C@H](O)[C@H]6O)CC[C@]45C)[C@]3(C)CO)OC[C@H](O)[C@@H]2O)[C@H](O)[C@H](O)[C@H]1O [hederacoside C]
ΔΨm (composite Z-score) ([1]; Conc 20 μM): −0.559
ROS (composite Z-score) (reactive oxygen species; Conc 20 μM): 0.079
GE-HTS (composite Z-score) (OXPHOS gene expression; Conc 20 μM): −0.809
nucOX (composite Z-score) (nuOXPHOS transcripts; Conc 20 μM): −0.645
mitoOX (composite Z-score) (mtOXPHOS transcripts; Conc 20 μM): −0.952
cyt c (composite Z-score) (cytochrome c; Conc 20 μM): 0.471
Viability (composite Z-score) (C2C12 myotubes; Conc 20 μM): −0.672
MTT (composite Z-score) ([2]; Conc 20 μM): −1.226

CC(=O)O[C@H]1CC[C@]2(C)C3=CC(=O)[C@]4(C)[C@@H]5[C@H](C[C@H]4[C@@H]3CC[C@H]2C1)O[C@@]1(OCC(C)CC1Br)[C@H]5C (stereo partly shown)
ΔΨm (composite Z-score) ([1]; Conc 20 μM): −0.260
ROS (composite Z-score) (reactive oxygen species; Conc 20 μM): 1.188
GE-HTS (composite Z-score) (OXPHOS gene expression; Conc 20 μM): −0.560
nucOX (composite Z-score) (nuOXPHOS transcripts; Conc 20 μM): −0.585
mitoOX (composite Z-score) (mtOXPHOS transcripts; Conc 20 μM): −0.446
cyt c (composite Z-score) (cytochrome c; Conc 20 μM): 0.565
Viability (composite Z-score) (C2C12 myotubes; Conc 20 μM): 0.710
MTT (composite Z-score) ([2]; Conc 20 μM): −2.231

N=C(N)N/N=C/c1c(Cl)cccc1Cl [guanabenz]
ΔΨm [1, 4]: −1.073
ROS (reactive oxygen species; [4]): 1.527
GE-HTS (OXPHOS gene expression; [4]): −0.428
nucOX (nuOXPHOS transcripts; [4]): −0.286
mitoOX (mtOXPHOS transcripts; [4]): −0.563
cyt c (cytochrome c; [4]): 0.420
Viability (C2C12 myotubes; [4]): −0.404
MTT [2, 4]: −0.886

COc1ccc(-c2c(O)c3c(OC)c4c(cc3oc2=O)OC(C)(C)CC4)cc1 [dihydrorobustic acid, reference compound]
ΔΨm [1, 4]: 0.000
ROS (reactive oxygen species; [4]): −0.115
GE-HTS (OXPHOS gene expression; [4]): −0.836
nucOX (nuOXPHOS transcripts; [4]): −0.849
mitoOX (mtOXPHOS transcripts; [4]): −0.701
cyt c (cytochrome c; [4]): 0.757
Viability (C2C12 myotubes; [4]): −0.721
MTT [2, 4]: −0.780

CC(=O)O[C@H]1CC[C@]2(C)C(C[C@H](OC(C)=O)[C@]3(C)C4=CC(=O)OC(c5ccoc5)[C@@]4(C)CCC23)C1(C)C (stereo partly shown)
ΔΨm (composite Z-score) ([1]; Conc 20 μM): −0.208
ROS (composite Z-score) (reactive oxygen species; Conc 20 μM): 1.848
GE-HTS (composite Z-score) (OXPHOS gene expression; Conc 20 μM): −1.124
nucOX (composite Z-score) (nuOXPHOS transcripts; Conc 20 μM): −1.228
mitoOX (composite Z-score) (mtOXPHOS transcripts; Conc 20 μM): −0.653
cyt c (composite Z-score) (cytochrome c; Conc 20 μM): 0.161
Viability (composite Z-score) (C2C12 myotubes; Conc 20 μM): −0.292
MTT (composite Z-score) ([2]; Conc 20 μM): −0.810

N[C@@H](C(=O)N[C@@H]1C(=O)N2C(C(=O)O)=C(Cl)CS[C@H]12)c1ccccc1 [cefaclor]
ΔΨm [1]: −0.759
ΔΨm [1, 4]: −0.772
ROS (reactive oxygen species): 0.387
ROS (reactive oxygen species; [4]): 0.297
GE-HTS (OXPHOS gene expression): 0.331
GE-HTS (OXPHOS gene expression; [4]): −0.547
nucOX (nuOXPHOS transcripts): 0.535
nucOX (nuOXPHOS transcripts; [4]): −0.506
mitoOX (mtOXPHOS transcripts): −0.161
mitoOX (mtOXPHOS transcripts; [4]): −0.435
cyt c (cytochrome c): −0.764
cyt c (cytochrome c; [4]): 0.231
Viability (C2C12 myotubes): 0.762
Viability (C2C12 myotubes; [4]): −0.091
MTT [2]: −1.329
MTT [2, 4]: −0.752

C=C1[C@@H]2CC[C@@]3(C)[C@H](c4ccoc4)OC(=O)C[C@]13O[C@H]1CC(=O)C(C)(C)[C@H](CC(=O)OC)[C@]12C [angolensic acid, methyl ester]
ΔΨm [1, 7]: 0.163
ROS (reactive oxygen species; [7]): 0.465
GE-HTS (OXPHOS gene expression; [7]): 0.827
nucOX (nuOXPHOS transcripts; [7]): 0.729
mitoOX (mtOXPHOS transcripts; [7]): 0.813
cyt c (cytochrome c; [7]): −0.204
Viability (C2C12 myotubes; [7]): 1.019
MTT [2, 7]: 0.322

CC(=O)N[C@@H](CC(=O)O)C(=O)O [N-acetylaspartic acid]
ΔΨm (composite Z-score) ([1]; Conc 20 μM): −0.663
ROS (composite Z-score) (reactive oxygen species; Conc 20 μM): 0.309
GE-HTS (composite Z-score) (OXPHOS gene expression; Conc 20 μM): −0.670
nucOX (composite Z-score) (nuOXPHOS transcripts; Conc 20 μM): −0.436
mitoOX (composite Z-score) (mtOXPHOS transcripts; Conc 20 μM): −1.046
cyt c (composite Z-score) (cytochrome c; Conc 20 μM): 0.753
Viability (composite Z-score) (C2C12 myotubes; Conc 20 μM): −0.266
MTT (composite Z-score) ([2]; Conc 20 μM): −0.456

CC(=O)O.CSC(=N)NCCC[C@H](N)C(=O)O [S-methyl-L-thiocitrulline acetate]
ΔΨm [1, 8]: −0.542
ROS (reactive oxygen species; [8]): 0.052
GE-HTS (OXPHOS gene expression; [8]): 0.291
nucOX (nuOXPHOS transcripts; [8]): 0.325
mitoOX (mtOXPHOS transcripts; [8]): 0.173
cyt c (cytochrome c; [8]): 0.533
Viability (C2C12 myotubes; [8]): 0.613
MTT [2, 8]: −0.262
